The record followed here is patent US20220251187A1, “P2X7 RECEPTOR TARGETED THERAPY” (BIOSCEPTRE (AUST) PTY LTD, priority 2019, published 2022).

Type in all cases: cell-based
The subject of assay [1] is Kelly cells. The experiment in a line: nfP2X7 antibody binding to live cells by flow cytometry after chemotherapy. To be noted: doxorubicin 0.0625 μM to 0.25 μM or 5 Fu 1 μM to 8 μM, 72 hours, FIG. 2B, 2C. How it is done: (§1) 500,000 cells were seeded in a 6 well plate and allowed to adhere over-night. Cells were then treated with increasing amount of chemotherapy or vehicle control for 72 hours to induce varying amount of cell killing. The remaining live cells were dissociated in PBS based enzyme-free dissociation buffer, washed and re-suspended in staining buffer (PBS, 2% FCS). Cells were then stained for 1 h with primary antibody raised against non-functional P2X7 (here 2-2-1hFc), washed 3 times in staining buffer prior to a 1 h incubation with fluorescently coupled secondary antibody and 7AAD. Fluorescence staining on live cells was acquired using a BD Accuri flow cytometer and analysed with FlowJo-flow cytometry analysis software. Median fluorescence intensity of the live cell population was analysed using 7AAD live dead staining.
(A flow cytometer gives signals particle by particle.)

The subject of assay [2] is Kelly cells. Description: CellTiter-Blue cell viability assay after chemotherapy. To be noted: increasing doses, 72 hours, FIG. 1C, 1D. How it is done: (§2) 4,000 cells were seeded in a 96 well plate and allowed to adhere over-night. Cells were then treated with increasing amount of chemotherapy or vehicle control for 72 hours to induce varying amount of cell killing. Cell viability was then measured using CellTiter-Blue Cell Viability Assay form Promega following manufacturer's instruction.
(Resazurin is reduced to fluorescent resorufin, in cell work by metabolically active cells.)

In assay [3] the test system is P2X7 receptor. The experiment in a line: nfP2X7 induction by Condition Media from Doxorubicin treated RPMI-8226 cells with P2X7 inhibitor. To be noted: Condition Media from RPMI-8226 treated with Doxorubicin; FIG. 6b.
For assay [4], the system named is RPMI-8226 cells. Description: nfP2X7 antibody binding to live cells by flow cytometry after chemotherapy. To be noted: doxorubicin 0.0625 μM to 0.25 μM, 72 hours, FIG. 2A. As for the experimental part: as §1
Assay [5] deals with RPMI-8226 cells. Description: CellTiter-Blue cell viability assay after chemotherapy. To be noted: increasing doses, 72 hours, FIG. 1B. How it is done:
as §2

In assay [6] the test system is myeloma RPMI-8226 cell line. The experiment in a line: Ethidium influx in response to BzATP stimulation (P2X7 pore opening). To be noted: 0.5 mM BzATP, FIG. 1A. As for the experimental part: Normalised ethidium influx in response to 0.5 mM BzATP stimulation in the myeloma RPMI-8226 and neuroblastoma Kelly cell lines. Mean of three independent experiments is shown.

Assay [7] deals with nfP2X7. The experiment in a line: HMGB1-driven increase in nfP2X7. To be noted: FIG. 6a.

With `O=c1[nH]cc(F)c(=O)[nH]1` [5 Fu, Fluorouracil], the “Effect on nfP2X7 antibody binding to live cells” value in assay [1] is listed as “increased nfPX7 antibody binding”. Also, in assay [2], the “Effect on cell viability (CTB assay)” value is reported as “cell death”.

In the case of `COc1ccc(CC(=O)NC(N=C(NC#N)Nc2cccc3ncccc23)C(C)(C)C)cc1OC` (stereo not drawn) [A 740003, N-[1-[[(Cyanoamino)(5-quinolinylamino)methylene]amino]-2,2-dimethylpropyl]-3,4-dimethoxybenzeneacetamide], in assay [3], the “Block of conditioned media induced nfP2X7 induction” value was “does not block”.

`COc1cccc2c1C(=O)c1c(O)c3c(c(O)c1C2=O)C[C@@](O)(C(=O)CO)C[C@@H]3O[C@H]1C[C@H](N)[C@H](O)[C@H](C)O1` [Doxorubicin]: the “Effect on nfP2X7 antibody binding to live cells” value in assay [1] and in assay [4] was “increased nfPX7 antibody binding” throughout. The “Effect on cell viability (CTB assay)” value in assay [2] and in assay [5] was “cell death” each time.

On to `Nc1ncnc2c1ncn2[C@@H]1O[C@H](COP(=O)(O)OP(=O)(O)OP(=O)(O)O)[C@@H](OC(=O)c2ccc(C(=O)c3ccccc3)cc2)[C@H]1O` [BzATP], for which the “P2X7 pore opening (normalised ethidium influx)” value in assay [6] was “able to open the P2X7 pore”.

B1: HMGB1: DAMP released by chemo- and radio-therapy (protein, UniProt P09429 1-215, looked up)
High mobility group protein B1: MGKGDPKKPRGKMSSYAFFVQTCREEHKKKHPDASVNFSEFSKKCSERWKTMSAKEKGKFEDMAKADKARYEREMKTYIPPKGETKKKFKDPNAPKRPPSAFFLFCSEYRPKIKGEHPGLSIGDVAKKLGEMWNNTAADDKQPYEKKAAKLKEKYEKDIAAYRAKGKPDAAKKGVVKAEKSKKKKEEEEDEEDEEDEEEEEDEEDEDEEEDDDDE
With B1, the “Effect on nfP2X7 level” value in assay [7] is “drives the increase in nfP2X7”.
